The structures appear in SMILES notation. pEC50: −log10 of the molar value. Read-outs that look alike come from different tables or passages of the source.

This test relates to HBV rcDNA. Put plainly: HepDE19 assay with bDNA quantitation of HBV rcDNA. The class given is cell-based, hepatitis B virus. In a few lines:
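Cytotoxicity (CC50) measured by CellTiter-Glo ATP content in parallel plates, 5,000 cells/well, 4 days. Antiviral EC50 and EC90 derived from HBV rcDNA bDNA levels after 7-day compound exposure (top 25 μM, ½-log 8-point, 0.5% DMSO) of Tet-withdrawn HepDE19 cells at 50,000/well, as % inhibition versus untreated.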

The mark [1] stands for this setting: HepDE19 cells, Tet-free medium, 7 day-incubation, rcDNA measured by Quantigene 2.0 bDNA assay, top concentration 25 μM; read-out: DE-19 bDNA EC50.
[2] abbreviates: read-out: DE-19 bDNA EC50; HepDE19 cells, Tet-free medium, 7 day-incubation, rcDNA measured by Quantigene 2.0 bDNA assay, top concentration 25 μM.

On to `Cn1cnc(COC(=O)NC2CCc3c2c(C2CCC2)n(C)c3C(=O)Nc2ccc(F)c(Cl)c2)n1` (single isomer, unassigned) [Compound 97, (1-Methyl-1H-1,2,4-triazol-3-yl)methyl (1-((3-chloro-4-fluorophenyl)carbamoyl)-3-cyclobutyl-2-methyl-2,4,5,6-tetrahydrocyclopenta[c]pyrrol-4-yl)carbamate], for which the pEC50 (commonly the EC50 on a negative log10 scale, so that one unit is a factor of ten) under setting [1] is no more than 4.60. Consider `Cn1c(C(=O)Nc2ccc(F)c(Cl)c2)c2c(c1C1CC1)C(NC(=O)OCc1nc[nH]n1)CC2` (single isomer, unassigned) [Compound 98, (1H-1,2,4-Triazol-3-yl)methyl (1-((3-chloro-4-fluorophenyl)carbamoyl)-3-cyclopropyl-2-methyl-2,4,5,6-tetrahydrocyclopenta[c]pyrrol-4-yl)carbamate], for which the pEC50 under setting [1] was 4.82. For `Cn1c(C(=O)Nc2ccc(F)c(Cl)c2)c2c(c1C1CC1)C(NC(=O)OCc1nc[nH]n1)CC2` (single isomer, unassigned) [Compound 99, (1H-1,2,4-Triazol-3-yl)methyl (1-((3-chloro-4-fluorophenyl)carbamoyl)-3-cyclopropyl-2-methyl-2,4,5,6-tetrahydrocyclopenta[c]pyrrol-4-yl)carbamate], under setting [1], the negative logarithm of the EC50 (pEC50) was 6.48. Still for that read-out and setting: as for `C#CCOC(=O)NC1CCc2c1cn(C)c2C(=O)Nc1ccc(F)c(Cl)c1` (single isomer, unassigned) [Compound 101, Prop-2-yn-1-yl (1-((3-chloro-4-fluorophenyl)carbamoyl)-2-methyl-2,4,5,6-tetrahydrocyclopenta[c]pyrrol-4-yl)carbamate], the figure is 5.80; as for `C#CCOC(=O)NC1CCc2c1cn(C)c2C(=O)Nc1ccc(F)c(Cl)c1` (single isomer, unassigned) [Compound 102, Prop-2-yn-1-yl (1-((3-chloro-4-fluorophenyl)carbamoyl)-2-methyl-2,4,5,6-tetrahydrocyclopenta[c]pyrrol-4-yl)carbamate], 7.70. On the same count and under the same terms, as for `Cn1c(Cl)c2c(c1C(=O)Nc1ccc(F)c(Cl)c1)CCC2NC(=O)OCc1nc[nH]n1` (single isomer, unassigned) [Compound 104, (1H-1,2,4-Triazol-3-yl)methyl (3-chloro-1-((3-chloro-4-fluorophenyl)carbamoyl)-2-methyl-2,4,5,6-tetrahydrocyclopenta[c]pyrrol-4-yl)carbamate], the figure is 5.72; as for `Cn1c(Cl)c2c(c1C(=O)Nc1ccc(F)c(Cl)c1)CCC2NC(=O)OCc1nc[nH]n1` (single isomer, unassigned) [Compound 105, (1H-1,2,4-Triazol-3-yl)methyl (3-chloro-1-((3-chloro-4-fluorophenyl)carbamoyl)-2-methyl-2,4,5,6-tetrahydrocyclopenta[c]pyrrol-4-yl)carbamate], 8.00.

Take `Cn1c(Cl)c2c(c1C(=O)Nc1ccc(F)c(Cl)c1)CCC2NC(=O)OCc1cn[nH]n1` (single isomer, unassigned) [Compound 106, (2H-1,2,3-Triazol-4-yl)methyl (3-chloro-1-((3-chloro-4-fluorophenyl)carbamoyl)-2-methyl-2,4,5,6-tetrahydrocyclopenta[c]pyrrol-4-yl)carbamate]: under setting [1], the pEC50 is 5.85. For `Cn1c(Cl)c2c(c1C(=O)Nc1ccc(F)c(Cl)c1)CCC2NC(=O)OCc1cn[nH]n1` (single isomer, unassigned) [Compound 107, (2H-1,2,3-Triazol-4-yl)methyl (3-chloro-1-((3-chloro-4-fluorophenyl)carbamoyl)-2-methyl-2,4,5,6-tetrahydrocyclopenta[c]pyrrol-4-yl)carbamate], the pEC50 under setting [1] was 8.00. As to `Cn1cnc(COC(=O)NC2CCc3c2c(-c2ccccc2)n(C)c3C(=O)Nc2ccc(F)c(Cl)c2)n1` (single isomer, unassigned) [Compound 108, (1-Methyl-1H-1,2,4-triazol-3-yl)methyl (1-((3-chloro-4-fluorophenyl)carbamoyl)-2-methyl-3-phenyl-2,4,5,6-tetrahydrocyclopenta[c]pyrrol-4-yl)carbamate], the pEC50 under setting [2] is 5.28. Turning to `Cn1cnc(COC(=O)NC2CCc3c2c(-c2ccccc2)n(C)c3C(=O)Nc2ccc(F)c(Cl)c2)n1` (single isomer, unassigned) [Compound 109, (1-Methyl-1H-1,2,4-triazol-3-yl)methyl (1-((3-chloro-4-fluorophenyl)carbamoyl)-2-methyl-3-phenyl-2,4,5,6-tetrahydrocyclopenta[c]pyrrol-4-yl)carbamate], the pEC50 under setting [2] was 4.62.

For the molecule `CC#CCOC(=O)NC1CCc2c1cn(C)c2C(=O)Nc1ccc(F)c(Cl)c1` (single isomer, unassigned) [Compound 110, But-2-yn-1-yl (1-((3-chloro-4-fluorophenyl)carbamoyl)-2-methyl-2,4,5,6-tetrahydrocyclopenta[c]pyrrol-4-yl)carbamate], under setting [2], the pEC50 was 5.82. The same measure, in the same setting: as for `CC#CCOC(=O)NC1CCc2c1cn(C)c2C(=O)Nc1ccc(F)c(Cl)c1` (single isomer, unassigned) [Compound 111, But-2-yn-1-yl (1-((3-chloro-4-fluorophenyl)carbamoyl)-2-methyl-2,4,5,6-tetrahydrocyclopenta[c]pyrrol-4-yl)carbamate], the figure is 7.22; as for `CCC#CCOC(=O)NC1CCc2c1cn(C)c2C(=O)Nc1ccc(F)c(Cl)c1` (single isomer, unassigned) [Compound 112, Pent-2-yn-1-yl(1-((3-chloro-4-fluorophenyl)carbamoyl)-2-methyl-2,4,5,6-tetrahydrocyclopenta[c]pyrrol-4-yl)carbamate], 5.24.

Turning to `CCC#CCOC(=O)NC1CCc2c1cn(C)c2C(=O)Nc1ccc(F)c(Cl)c1` (single isomer, unassigned) [Compound 113, Pent-2-yn-1-yl(1-((3-chloro-4-fluorophenyl)carbamoyl)-2-methyl-2,4,5,6-tetrahydrocyclopenta[c]pyrrol-4-yl)carbamate], under setting [2], the pEC50 is 6.92. Take `Cn1cc2c(c1C(=O)Nc1ccc(F)c(Cl)c1)CCC2NC(=O)OCC#CC1CC1` (single isomer, unassigned) [Compound 114, 3-Cyclopropylprop-2-yn-1-yl (1-((3-chloro-4-fluorophenyl)carbamoyl)-2-methyl-2,4,5,6-tetrahydrocyclopenta[c]pyrrol-4-yl)carbamate]: under setting [1], the pEC50 is 6.33.

As to `Cn1cc2c(c1C(=O)Nc1ccc(F)c(Cl)c1)CCC2NC(=O)OCC#CC1CC1` (single isomer, unassigned) [Compound 115, 3-Cyclopropylprop-2-yn-1-yl (1-((3-chloro-4-fluorophenyl)carbamoyl)-2-methyl-2,4,5,6-tetrahydrocyclopenta[c]pyrrol-4-yl)carbamate], the pEC50 under setting [1] was 5.27.

With `Cn1cc(COC(=O)NC2CCc3c2cn(C)c3C(=O)Nc2ccc(F)c(Cl)c2)nn1` (single isomer, unassigned) [Compound 116, (1-Methyl-1H-1,2,3-triazol-4-yl)methyl (1-((3-chloro-4-fluorophenyl)carbamoyl)-2-methyl-2,4,5,6-tetrahydrocyclopenta[c]pyrrol-4-yl)carbamate], the pEC50 under setting [1] was 7.30. Same read-out and setting: as for `Cn1cc(COC(=O)NC2CCc3c2cn(C)c3C(=O)Nc2ccc(F)c(Cl)c2)nn1` (single isomer, unassigned) [Compound 117, (1-Methyl-1H-1,2,3-triazol-4-yl)methyl (1-((3-chloro-4-fluorophenyl)carbamoyl)-2-methyl-2,4,5,6-tetrahydrocyclopenta[c]pyrrol-4-yl)carbamate], the figure is 5.21; as for `Cn1cc2c(c1C(=O)Nc1ccc(F)c(Cl)c1)CCC2NC(=O)OC[C@@H]1CCC(=O)N1` (single isomer, unassigned) [Compound 118], 6.80. Same read-out and setting: for `Cn1cc2c(c1C(=O)Nc1ccc(F)c(Cl)c1)CCC2NC(=O)OC[C@@H]1CCC(=O)N1` (single isomer, unassigned) [Compound 119] the value was 5.72. Turning to `Cn1cc2c(c1C(=O)Nc1ccc(F)c(Cl)c1)CCC2NC(=O)OC[C@H]1CCC(=O)N1` (single isomer, unassigned) [Compound 120], the negative-log EC50 (pEC50) under setting [1] is 6.68. Still for that read-out and setting: as for `Cn1cc2c(c1C(=O)Nc1ccc(F)c(Cl)c1)CCC2NC(=O)OC[C@H]1CCC(=O)N1` (single isomer, unassigned) [Compound 121], the figure is 5.40.

Consider `Cn1c(Br)c2c(c1C(=O)Nc1ccc(F)c(Cl)c1)CCC2NC(=O)OCc1nc[nH]n1` (single isomer, unassigned) [Compound 125, (1H-1,2,4-Triazol-3-yl)methyl(3-bromo-1-((3-chloro-4-fluorophenyl)carbamoyl)-2-methyl-2,4,5,6-tetrahydrocyclopenta[c]pyrrol-4-yl)carbamate], for which the EC50 (Hepatitis B virus, HepDE19, 168 h, read-out: DE-19 bDNA EC50 (μM), HepDE19 cells, Tet-free medium, 7 day-incubation, rcDNA measured by Quantigene 2.0 bDNA assay, top concentration 25 μM) was found to be 0.04 µM. In the case of `Cn1c(C(=O)Nc2ccc(F)c(Cl)c2)c2c(c1C(F)(F)F)C(NC(=O)OCc1nc[nH]n1)CC2` (single isomer, unassigned) [Compound 126, (1H-1,2,4-Triazol-3-yl)methyl (1-((3-chloro-4-fluorophenyl)carbamoyl)-2-methyl-3-(trifluoromethyl)-2,4,5,6-tetrahydrocyclopenta[c]pyrrol-4-yl)carbamate], the pEC50 under setting [1] was 5.06. Take `Cn1c(C(=O)Nc2ccc(F)c(Cl)c2)c2c(c1C(F)(F)F)C(NC(=O)OCc1nc[nH]n1)CC2` (single isomer, unassigned) [Compound 127, (1H-1,2,4-Triazol-3-yl)methyl (1-((3-chloro-4-fluorophenyl)carbamoyl)-2-methyl-3-(trifluoromethyl)-2,4,5,6-tetrahydrocyclopenta[c]pyrrol-4-yl)carbamate]: under setting [1], the pEC50 was 6.36.

(Values after patent publication US11566002B2, “Substituted tetrahydrocyclopenta[C]pyrroles, substituted dihydropyrrolizines, analogues thereof, and methods using same” (priority 2018, dated 2023).)
